For 72 compounds, IC50 and IC90 results are on record in PubChem BioAssay AID449764 (Southern Research Specialized Biocontainment Screening …, 2010).

The assay has as its system Mycobacterium tuberculosis H37Rv growth inhibition, no glycerol. Briefly: Confirmatory growth inhibition assay, Mycobacterium tuberculosis H37Rv, absence of glycerol (AID 449764).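 As to all read-outs here: growth read after 7 days of incubation.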 The following applies: for IC90: measured here: IC90 growth inhibition.

Molecules are shown by their SMILES. Bounds are passed on as bounds.

For `O=C(CCl)NCCCCCCCCCNC(=O)CCl`, the IC50 – broadly, the point on the concentration scale where inhibition reaches its midpoint – is under 0.2 µM and the IC90 (as a rule, the concentration at which the effect reaches the 90% level) is over 100 µM.
`COc1ccccc1NC(=O)c1ccc(NC(=O)CSc2nnnn2C)cc1`: the IC50 is 11.7 µM and the IC90 is 21.6 µM.
Taken in the same sequence, the figures for `CCCCCC(O)c1cccc(OCc2ccc3ccccc3n2)c1` (stereo not drawn) were 35.4 µM and 56 µM.
With `CCN1CCN(Cc2ccc(NC(=O)c3cc(NC(=O)c4cncc(-c5cccs5)c4)cc(OC)c3)cc2C(F)(F)F)CC1`, the IC50 is 10.3 µM and the IC90 was determined as 16.5 µM.
Taken in the same sequence, the figures for `CC(=O)N(Cc1ccc(F)cc1)C1=C(NCCc2ccccc2)C(=O)c2ccccc2C1=O` were 10.2 µM and 16.6 µM.
On the same counts, the results for `C(=C\c1nccc2c1[nH]c1ccccc12)/c1ccccc1` are 31.2 µM and 42.7 µM.
On the same counts, the results for `O=C(CSc1nn(-c2ccc(F)cc2)c(=S)s1)NCC1CCCO1` (stereo not drawn) are 20.7 µM and over 100 µM.
Consider `COC(=O)C(C)Oc1ccc2c(c1)O/C(=C\c1ccco1)C2=O` (stereo not drawn), for which the IC50 is 11.3 µM and the IC90 came to 17.2 µM.
In the case of `CSc1nsc(SCC(=O)Nc2ccc(F)cc2F)n1`, the IC50 is 88.7 µM and the IC90 is 98.9 µM.
On the same counts, the results for `CN(C(=O)COC(=O)c1ccc([N+](=O)[O-])cc1Cl)C1CCCCC1` are 19.2 µM and over 100 µM.
With `CC(C)(O)[C@H]1O[C@H]2CC[C@@]3(C)[C@@](O)(CC[C@H]4Cc5c([nH]c6ccccc56)[C@@]43C)C2=CC1=O`, the IC50 is 48.7 µM and the IC90 was over 100 µM.
Consider `O=C(Nc1ncc(Cc2ccccc2Cl)s1)C1=NCCN1`, for which the IC50 was 23.7 µM and the IC90 was over 100 µM.
`C[C@]12CC[C@@H]3c4ccc(O)cc4CC[C@H]3[C@@H]1CC[C@@H]2OC(=O)CCC1CCCC1`: the IC50 is 14.5 µM and the IC90 came to 35.3 µM.
As for `CCCCCCCCNC(C)C(O)c1ccc(SC(C)C)cc1` (stereo not drawn), the IC50 is 25 µM and the IC90 came out at 26.5 µM.
On the same counts, the results for `COc1ccccc1C1CC(c2ccc(Cl)cc2)Nc2ncnn21` (stereo not drawn) are 22.7 µM and 30.7 µM.
On the same counts, the results for `Cc1cc(C)c2oc(-c3ccc(C)c(NC(=S)NC(=O)/C=C/c4ccco4)c3)nc2c1` are 77.5 µM and over 100 µM.
On the same counts, the results for `O=[N+]([O-])c1ccc(S(=O)(=O)c2ccccc2)nc1` are 1.76 µM and 2.98 µM.
On to `CCOc1ccc(-c2cnc(NCc3cccc4ccccc34)n2CCOC)cc1`, for which the IC50 was 7.03 µM and the IC90 turned out to be 11 µM.
On the same counts, the results for `CCOC(=O)c1c(C)n(-c2ccc(C)cc2)c2ccc(OCC(O)CNCC3CCCO3)cc12` (stereo not drawn) are 22.8 µM and 25.7 µM.
Turning to `O=C(Cc1ccccc1)N/N=C/c1ccc2cccc(O)c2n1`, the IC50 is 11.3 µM and the IC90 amounted to 12.6 µM.
On to `Cc1ccn2c(NC3CCCCC3)c(-c3cccc(-c4cccc(Cl)c4)c3)nc2c1`, for which the IC50 was 26.4 µM and the IC90 was found to be 36.3 µM.
On the same counts, the results for `CCCCCn1c(=O)c2ccccc2n2c(CCl)nnc12` are 1.36 µM and 6.07 µM.
As to `CNC[C@@H](Cc1ccccc1)NC[C@@H](CC1CCCCC1)NCCCc1ccccc1`, the IC50 is 7.99 µM and the IC90 was 9.68 µM.
Taken in the same sequence, the figures for `O=C(Oc1ccccc1-c1nnco1)c1ccc(Cl)cc1` were 27.8 µM and 73.6 µM.
In the case of `Cc1ccc2[nH]c(C(=O)NN=C3CCCCC3)c(-c3ccccc3)c2c1`, the IC50 is 33.6 µM and the concentration for an effect of 90% (IC90) came out at 53.3 µM.
In the case of `OC(CN1CCN(c2ccccn2)CC1)Cn1c2ccccc2c2ccccc21` (stereo not drawn), the IC50 is 42 µM and the IC90 is 55.1 µM.
With `COc1ccc(C(C)=O)cc1COC(=O)c1ccc2ccccc2n1`, the IC50 was 60.3 µM and the IC90 is over 100 µM.
Taken in the same sequence, the figures for `COc1ccc(NCc2nc3ccccc3n2CCOc2ccccc2)cc1` were 69.5 µM and 88.6 µM.
On the same counts, the results for `CCCCN1C(=N)N([C@@H](CCC)CN2CCC[C@H]2CN2C(N)=NC[C@@H]2Cc2ccccc2)C[C@H]1Cc1ccccc1` are 23.9 µM and 27.6 µM.
As to `CCc1nc(N2CCN(C(C)=O)CC2)c2c3c(sc2n1)CC(C(C)(C)C)CC3` (stereo not drawn), the IC50 is 17.9 µM and the IC90 amounted to 21.5 µM.
Taken in the same sequence, the figures for `CCSc1ccc2c(c1)N(CCCN1CCN(C)CC1)c1ccccc1S2` were 23.1 µM and 27.2 µM.
For the compound `O=S(=O)(c1ccc(Cl)cc1)c1snnc1-c1ccccc1`, the IC50 is 18.8 µM and the IC90 amounted to 29.9 µM.
On the same counts, the results for `CC(C)NC(=S)N/N=C/c1cc(Br)ccc1O` are 29.5 µM and over 100 µM.
As to `CC(=O)c1sc(NC(=O)c2cc(=O)c3ccccc3o2)nc1C`, the IC50 was 18.4 µM and the IC90 was over 100 µM.
Turning to `COC1=CC(=O)c2ccccc2C1=O`, the IC50 was 22.8 µM and the IC90 was 24.6 µM.
On the same counts, the results for `On1onc2c3cc(-c4ccccc4)nc3ccc21` are under 0.2 µM and under 0.2 µM.
`C/C(=N/Nc1cc(-c2ccccc2)nc(-c2ccccc2)n1)c1ccc(O)cc1`: the IC50 is 9.73 µM and the IC90 was determined as 12.7 µM.
Taken in the same sequence, the figures for `NNC(=S)Nc1ccccc1Cl` were 83.8 µM and 93 µM.
With `CCCc1cc(-c2nc(-c3ccc(Br)cc3)cs2)ccn1`, the IC50 is 16.4 µM and the IC90 was 24.6 µM.
On the same counts, the results for `Cc1cc(C)c(C(N)=O)c(SCC(=O)c2ccc(Cl)cc2)n1` are 75.3 µM and over 100 µM.
Taken in the same sequence, the figures for `CCOC(=O)N1CCc2c(sc(NC(=O)c3ccc(Cl)s3)c2C(N)=O)C1` were 6.96 µM and 19.1 µM.
As to `CC(C)(C)c1ccc(OCCCC(=O)NC2=NCCS2)cc1`, the IC50 was 38.7 µM and the IC90 worked out at 48.9 µM.
On the same counts, the results for `C=CCNCC(=O)N1N=C(c2ccc3ccccc3c2)CC1c1ccc(OC)cc1` (stereo not drawn) are 18.4 µM and 23.3 µM.
Taken in the same sequence, the figures for `COC(=O)c1ccc(Cn2cc(C(F)(F)F)cc([N+](=O)[O-])c2=O)cc1` were 0.63 µM and over 100 µM.
As for `Cc1cc(C)n2nc(N)c(N=Nc3ccccc3)c2n1`, the IC50 is 2.59 µM and the IC90 came out at 3.46 µM.
Taken in the same sequence, the figures for `COc1ccc(NC(=O)CSC2CCCCC2)cc1` were 76.3 µM and over 100 µM.
On the same counts, the results for `O=C(/C=C/c1cccnc1)c1cccc(O)c1` are 22.4 µM and 24.1 µM.
Taken in the same sequence, the figures for `CCC(C)NC(=O)c1cn(CC)c2cc(N3CCN(C(=O)c4ccco4)CC3)c(F)cc2c1=O` (stereo not drawn) were 23.5 µM and 29.7 µM.
With `O=C(CCn1c(=O)c2cccn2c2cccnc21)N1CCN(c2cccc(Cl)c2)CC1`, the IC50 is 30.6 µM and the IC90 worked out at 46.9 µM.
`CC(NCCCOc1cccc2ccccc12)c1ccccc1` (stereo not drawn): the IC50 was 25.1 µM and the IC90 came to 28 µM.
On the same counts, the results for `CN(C)c1ccnc2c[cH-]cc12.[Fe].c1ccc(-[c-]2[c-](-c3ccccc3)[c-](-c3ccccc3)[c-](-c3ccccc3)[c-]2-c2ccccc2)cc1` (stereo not drawn) are 14.3 µM and 19 µM.
Take `CCOC(=O)CSc1nc(C)c(C(=O)OCC)s1`: the IC50 is 9.22 µM and the IC90 is 16.2 µM.
Taken in the same sequence, the figures for `Cc1[nH]c2ccccc2c1C(=O)COC(=O)c1ccc([N+](=O)[O-])s1` were 1.32 µM and 3.24 µM.
Taken in the same sequence, the figures for `Cc1ccc(C)c(C2C(=O)c3ccccc3C2=O)c1` were 16.5 µM and 46.8 µM.
On the same counts, the results for `CN(C(=O)c1cccc(Nc2ccc(-c3ccc4c(c3)OCCO4)nn2)c1)C1CCCCC1` are 69.2 µM and over 100 µM.
`O=C(NC1CCN(C(=O)N2c3ccccc3Sc3ccccc32)CC1)c1ccccc1F` gave an IC90 of over 100 µM.
In the case of `COc1ccc(Nc2nc(N)c([N+](=O)[O-])c(NC3CCCCC3)n2)cc1`, the IC50 is 18.3 µM and the IC90 came to 26.3 µM.
In the case of `Clc1ccc(NNc2ccnc3cc(Cl)ccc23)cc1`, the IC50 is 15.4 µM and the IC90 is 19.9 µM.
Taken in the same sequence, the figures for `COc1ccc(C(=O)/C=C/c2cc(OC)c(O)c(OC)c2)c(F)c1` were 60.7 µM and over 100 µM.
Taken in the same sequence, the figures for `O=C1Nc2ccc(Br)cc2/C1=C/C(=O)c1ccc2c(c1)OCO2` were 18.1 µM and 23.7 µM.
With `Cn1c(NCC(O)c2ccccc2)nc2c1c(=O)n(Cc1ccc(Cl)c(Cl)c1)c(=O)n2C` (stereo not drawn), the IC50 was 77.8 µM and the IC90 is over 100 µM.
Turning to `CCOC(=O)C(C)Oc1ccc(NC(=O)C(Cl)(Cl)Cl)cc1` (stereo not drawn), the IC50 is 3.99 µM and the IC90 came out at 5.86 µM.
On the same counts, the results for `O=C(NCc1nnnn1-c1ccc(F)cc1)c1ccc([N+](=O)[O-])o1` are 53.7 µM and over 100 µM.
As for `CO/N=C(\Cn1ncc(N2CCCC2)c(Cl)c1=O)c1ccc(Cl)cc1`, the IC50 is 23.7 µM and the IC90 came out at 26.9 µM.
On the same counts, the results for `CC(C(c1ccc2c(c1)OCO2)c1c(N)n(C)c(=O)n(C)c1=O)[N+](=O)[O-]` (stereo not drawn) are 8.17 µM and 11.8 µM.
Taken in the same sequence, the figures for `COc1ccc(N/N=C(/N=Nc2nc(C)cc(=O)[nH]2)c2ccccc2)cc1` were 5.64 µM and 6.4 µM.
Taken in the same sequence, the figures for `CCCCOc1ccc(Br)cc1/C(C)=N/NC1=NCCN1` were 22.4 µM and 31.8 µM.
In the case of `Cc1ccc(-c2csc(N3CCN(CCCn4c(-c5ccncc5)nc5ccccc54)CC3)n2)cc1`, the IC50 is 29.7 µM and the IC90 was 48.3 µM.
On the same counts, the results for `Cc1ccc(-n2c(C)cc(/C=N/NC(N)=S)c2C)cc1` are 12.2 µM and 20 µM.
Consider `CC(=O)N1CCN(c2ccc(OC[C@H]3CO[C@](Cn4ccnc4)(c4ccc(Cl)cc4Cl)O3)cc2)CC1`, for which the IC50 is 14.6 µM and the IC90 turned out to be 20.8 µM.
On the same counts, the results for `COC(=O)C(CCSC)NC(=O)c1cn(-c2ccc(OC)cc2)c(=O)c2ccccc12` (stereo not drawn) are 24.3 µM and over 25 µM.
On the same counts, the results for `CCOC(=O)c1cnc2ccc(OCC)cc2c1N1CCN(c2ccccc2)CC1` are 25.9 µM and 56.7 µM.
